We go through two molecules from patent US7098233B2 (priority 2001, dated 2006).

Series [1] deals with D5 dopaminergic (Homo sapiens, UniProt P21918). The series is described as follows: Receptor panel binding: D5 dopaminergic.
The target of series [2] is 5-HT transporter (Homo sapiens, UniProt P31645). The series is described as follows: Binding affinity for 5-HT transporter.
Series [3] deals with T1, 5-HT3 (Homo sapiens, UniProt P46098).
T1 sequence (P46098 24-478): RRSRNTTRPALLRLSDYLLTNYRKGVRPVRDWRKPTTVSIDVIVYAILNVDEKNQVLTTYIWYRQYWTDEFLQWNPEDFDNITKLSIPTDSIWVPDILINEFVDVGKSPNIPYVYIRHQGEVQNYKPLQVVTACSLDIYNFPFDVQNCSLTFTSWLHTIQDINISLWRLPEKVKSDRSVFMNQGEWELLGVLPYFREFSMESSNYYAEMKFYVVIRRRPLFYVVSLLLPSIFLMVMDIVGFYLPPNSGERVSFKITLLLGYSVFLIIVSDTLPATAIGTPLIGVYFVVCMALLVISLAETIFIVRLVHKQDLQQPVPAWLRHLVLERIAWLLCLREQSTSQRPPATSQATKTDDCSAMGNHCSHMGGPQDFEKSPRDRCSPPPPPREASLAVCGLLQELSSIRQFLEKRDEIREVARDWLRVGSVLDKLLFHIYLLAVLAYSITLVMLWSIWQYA
The series is described as follows: Binding affinity for serotonin subtype 5-HT3.

Series [4] has as its target T2, alpha1b adrenergic receptor (Homo sapiens, UniProt P35368).
T2 sequence (P35368 1-520): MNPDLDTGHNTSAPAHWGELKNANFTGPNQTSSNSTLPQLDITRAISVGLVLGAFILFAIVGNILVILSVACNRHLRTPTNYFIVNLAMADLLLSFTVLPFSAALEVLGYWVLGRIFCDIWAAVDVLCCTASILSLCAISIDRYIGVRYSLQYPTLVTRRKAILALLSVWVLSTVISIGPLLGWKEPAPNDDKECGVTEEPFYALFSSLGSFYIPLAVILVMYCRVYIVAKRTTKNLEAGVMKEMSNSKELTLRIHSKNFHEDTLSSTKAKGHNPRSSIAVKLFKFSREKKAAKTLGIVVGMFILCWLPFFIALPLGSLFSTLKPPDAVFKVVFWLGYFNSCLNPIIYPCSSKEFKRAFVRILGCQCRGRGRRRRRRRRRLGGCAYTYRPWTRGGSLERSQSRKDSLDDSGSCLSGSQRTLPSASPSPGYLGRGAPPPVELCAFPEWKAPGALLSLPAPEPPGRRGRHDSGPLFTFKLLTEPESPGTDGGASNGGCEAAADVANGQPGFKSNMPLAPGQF
The series is described as follows: Receptor panel binding: alpha1b adrenergic. To be noted: for interaction capability for alpha1b receptors lower than for 5-HT6 receptor: alpha1b versus 5-HT6.

Series [5] addresses V1a of vasopressin (Homo sapiens, UniProt P37288). The series is described as follows: Receptor panel binding: vasopressin V1a.
Series [6] concerns the target beta1 adrenergic (Homo sapiens, UniProt P08588). The series is described as follows: Receptor panel binding: beta1 adrenergic.
The target of series [7] is NA transporter (Homo sapiens, UniProt P23975). The series is described as follows: Receptor panel binding: NA transporter.
Series [8] addresses V1b of vasopressin (Homo sapiens, UniProt P47901). The series is described as follows: Receptor panel binding: vasopressin V1b.
Series [9] deals with 5-HT2b (Homo sapiens, UniProt P41595). The series is described as follows: Binding affinity for serotonin subtype 5-HT2b.
Series [10] has as its target T3, 5-HT1a (Homo sapiens, UniProt P08908).
T3 sequence (P08908 1-422): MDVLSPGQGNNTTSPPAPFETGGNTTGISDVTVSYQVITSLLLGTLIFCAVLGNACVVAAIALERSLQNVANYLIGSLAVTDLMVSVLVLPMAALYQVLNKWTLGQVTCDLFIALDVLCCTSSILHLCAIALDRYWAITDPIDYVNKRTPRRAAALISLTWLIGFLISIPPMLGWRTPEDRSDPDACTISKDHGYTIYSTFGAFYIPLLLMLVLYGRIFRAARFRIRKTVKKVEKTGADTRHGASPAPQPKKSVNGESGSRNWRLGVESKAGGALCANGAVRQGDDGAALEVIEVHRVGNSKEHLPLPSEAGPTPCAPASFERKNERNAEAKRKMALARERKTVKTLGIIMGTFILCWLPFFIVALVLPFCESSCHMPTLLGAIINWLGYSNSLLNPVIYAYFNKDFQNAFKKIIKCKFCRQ
The series is described as follows: Binding affinity for serotonin subtype 5-HT1a.

Series [11] deals with 5-HT4 (Homo sapiens, UniProt Q13639). The series is described as follows: Binding affinity for serotonin subtype 5-HT4.
For series [12], the target named is T4, 5-HT2c (Homo sapiens, UniProt P28335).
T4 sequence (P28335 33-458): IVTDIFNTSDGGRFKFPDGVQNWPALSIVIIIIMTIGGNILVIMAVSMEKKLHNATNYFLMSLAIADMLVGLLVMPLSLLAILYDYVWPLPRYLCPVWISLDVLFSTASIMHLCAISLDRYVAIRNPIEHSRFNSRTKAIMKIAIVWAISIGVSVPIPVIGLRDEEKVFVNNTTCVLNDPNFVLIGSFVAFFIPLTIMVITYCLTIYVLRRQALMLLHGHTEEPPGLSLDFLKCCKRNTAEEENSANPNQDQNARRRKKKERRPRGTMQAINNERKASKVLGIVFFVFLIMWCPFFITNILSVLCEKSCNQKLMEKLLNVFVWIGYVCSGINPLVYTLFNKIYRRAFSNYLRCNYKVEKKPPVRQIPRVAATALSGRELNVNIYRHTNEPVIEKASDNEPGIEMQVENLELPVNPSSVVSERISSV
The series is described as follows: Binding affinity for serotonin subtype 5-HT2c.

The target of series [13] is V2 of vasopressin (Homo sapiens, UniProt P30518). The series is described as follows: Receptor panel binding: vasopressin V2.
Series [14] deals with 5-HT5a (Homo sapiens, UniProt P47898). The series is described as follows: Binding affinity for serotonin subtype 5-HT5a.
Series [15] concerns the target DA transporter (Homo sapiens, UniProt Q01959). The series is described as follows: Receptor panel binding: DA transporter.
In series [16] the target is 5-HT1d (Homo sapiens, UniProt P28221). The series is described as follows: Binding affinity for serotonin subtype 5-HT1d.
The target in series [17] is H1 histaminergic (Homo sapiens, UniProt P35367). The series is described as follows: Receptor panel binding: H1 histaminergic.
The target of series [18] is T5, rat 5-HT6 stably transfected to HEK293 (Rattus norvegicus, UniProt P31388).
T5 construct: expressed in transfected cells; host or cells: HEK293
The series is described as follows: 5-HT6 receptor binding, [3H]-LSD displacement.

T5 sequence (P31388 whole entry): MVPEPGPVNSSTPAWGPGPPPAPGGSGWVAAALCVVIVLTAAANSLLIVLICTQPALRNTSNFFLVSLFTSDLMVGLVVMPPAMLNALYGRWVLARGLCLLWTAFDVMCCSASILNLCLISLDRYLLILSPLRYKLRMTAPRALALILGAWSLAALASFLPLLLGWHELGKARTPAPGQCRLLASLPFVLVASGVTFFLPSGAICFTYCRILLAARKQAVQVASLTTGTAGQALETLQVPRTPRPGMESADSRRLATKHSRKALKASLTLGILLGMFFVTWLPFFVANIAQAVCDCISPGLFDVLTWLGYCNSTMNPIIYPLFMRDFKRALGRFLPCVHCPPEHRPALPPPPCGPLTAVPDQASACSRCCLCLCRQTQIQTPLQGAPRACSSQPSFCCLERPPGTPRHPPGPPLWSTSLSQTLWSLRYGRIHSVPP
Chain of DA transporter (Q01959 whole entry, species assumed): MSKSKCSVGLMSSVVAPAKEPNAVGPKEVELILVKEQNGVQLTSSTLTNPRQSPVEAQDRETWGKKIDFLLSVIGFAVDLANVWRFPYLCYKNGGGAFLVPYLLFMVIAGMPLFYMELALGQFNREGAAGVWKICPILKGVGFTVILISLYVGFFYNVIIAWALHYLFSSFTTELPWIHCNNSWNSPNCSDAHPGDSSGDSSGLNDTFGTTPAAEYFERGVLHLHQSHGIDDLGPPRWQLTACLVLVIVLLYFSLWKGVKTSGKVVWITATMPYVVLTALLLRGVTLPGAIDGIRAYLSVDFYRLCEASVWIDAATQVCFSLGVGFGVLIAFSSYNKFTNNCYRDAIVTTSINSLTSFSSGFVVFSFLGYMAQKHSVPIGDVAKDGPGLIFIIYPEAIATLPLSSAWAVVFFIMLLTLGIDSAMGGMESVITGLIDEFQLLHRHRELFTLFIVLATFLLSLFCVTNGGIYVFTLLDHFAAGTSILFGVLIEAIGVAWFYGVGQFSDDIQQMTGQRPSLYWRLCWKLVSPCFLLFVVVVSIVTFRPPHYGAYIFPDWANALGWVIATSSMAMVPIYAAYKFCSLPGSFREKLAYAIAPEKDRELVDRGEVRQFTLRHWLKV
Chain of NA transporter (P23975 whole entry): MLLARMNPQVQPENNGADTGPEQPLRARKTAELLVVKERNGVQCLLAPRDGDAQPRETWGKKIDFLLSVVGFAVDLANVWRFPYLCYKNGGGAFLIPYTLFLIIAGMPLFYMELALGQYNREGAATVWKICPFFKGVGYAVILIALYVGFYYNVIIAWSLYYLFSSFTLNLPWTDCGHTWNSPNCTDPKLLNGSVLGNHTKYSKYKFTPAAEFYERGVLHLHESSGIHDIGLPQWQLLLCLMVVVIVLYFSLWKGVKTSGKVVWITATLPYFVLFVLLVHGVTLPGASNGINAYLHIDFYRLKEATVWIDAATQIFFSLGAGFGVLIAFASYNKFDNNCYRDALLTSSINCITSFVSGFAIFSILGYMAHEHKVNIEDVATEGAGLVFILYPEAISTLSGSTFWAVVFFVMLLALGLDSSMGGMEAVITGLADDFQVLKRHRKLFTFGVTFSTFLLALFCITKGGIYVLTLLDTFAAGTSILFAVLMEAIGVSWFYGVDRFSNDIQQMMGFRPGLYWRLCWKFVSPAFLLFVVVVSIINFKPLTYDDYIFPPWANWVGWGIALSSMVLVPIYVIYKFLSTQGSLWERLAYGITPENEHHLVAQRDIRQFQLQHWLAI
Chain of 5-HT5a (P47898 whole entry, species assumed): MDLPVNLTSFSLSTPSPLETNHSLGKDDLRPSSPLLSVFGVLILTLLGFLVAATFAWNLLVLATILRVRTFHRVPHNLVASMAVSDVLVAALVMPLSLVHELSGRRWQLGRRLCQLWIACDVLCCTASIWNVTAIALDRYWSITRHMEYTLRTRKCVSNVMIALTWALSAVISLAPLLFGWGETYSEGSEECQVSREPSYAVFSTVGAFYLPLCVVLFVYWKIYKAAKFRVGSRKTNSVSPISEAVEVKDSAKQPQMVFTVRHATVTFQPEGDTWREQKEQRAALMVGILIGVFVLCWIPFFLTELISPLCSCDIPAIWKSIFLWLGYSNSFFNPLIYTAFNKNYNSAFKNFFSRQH
Chain of 5-HT1d (P28221 whole entry, species assumed): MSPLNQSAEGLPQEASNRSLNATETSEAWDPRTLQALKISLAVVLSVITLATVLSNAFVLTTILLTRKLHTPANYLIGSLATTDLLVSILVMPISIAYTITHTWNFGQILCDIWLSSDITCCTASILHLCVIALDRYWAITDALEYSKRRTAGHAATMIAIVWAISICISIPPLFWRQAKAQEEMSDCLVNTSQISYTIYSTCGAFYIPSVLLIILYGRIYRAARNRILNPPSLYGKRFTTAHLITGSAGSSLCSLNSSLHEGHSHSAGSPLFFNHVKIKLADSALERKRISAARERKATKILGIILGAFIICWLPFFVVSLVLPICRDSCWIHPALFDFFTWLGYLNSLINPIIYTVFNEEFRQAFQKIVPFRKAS
Chain of V1b of vasopressin (P47901 whole entry): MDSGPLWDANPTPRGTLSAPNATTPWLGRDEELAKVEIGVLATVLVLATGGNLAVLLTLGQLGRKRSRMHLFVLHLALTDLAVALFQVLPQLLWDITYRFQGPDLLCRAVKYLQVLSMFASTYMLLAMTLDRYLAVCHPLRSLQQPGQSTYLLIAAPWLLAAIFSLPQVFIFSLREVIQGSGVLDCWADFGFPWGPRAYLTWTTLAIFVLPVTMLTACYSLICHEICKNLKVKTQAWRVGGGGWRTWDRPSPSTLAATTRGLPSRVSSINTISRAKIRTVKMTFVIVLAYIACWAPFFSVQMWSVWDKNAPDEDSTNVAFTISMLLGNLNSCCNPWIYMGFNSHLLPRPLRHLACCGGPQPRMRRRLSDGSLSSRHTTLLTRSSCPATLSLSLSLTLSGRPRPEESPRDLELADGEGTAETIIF
Chain of beta1 adrenergic (P08588 whole entry): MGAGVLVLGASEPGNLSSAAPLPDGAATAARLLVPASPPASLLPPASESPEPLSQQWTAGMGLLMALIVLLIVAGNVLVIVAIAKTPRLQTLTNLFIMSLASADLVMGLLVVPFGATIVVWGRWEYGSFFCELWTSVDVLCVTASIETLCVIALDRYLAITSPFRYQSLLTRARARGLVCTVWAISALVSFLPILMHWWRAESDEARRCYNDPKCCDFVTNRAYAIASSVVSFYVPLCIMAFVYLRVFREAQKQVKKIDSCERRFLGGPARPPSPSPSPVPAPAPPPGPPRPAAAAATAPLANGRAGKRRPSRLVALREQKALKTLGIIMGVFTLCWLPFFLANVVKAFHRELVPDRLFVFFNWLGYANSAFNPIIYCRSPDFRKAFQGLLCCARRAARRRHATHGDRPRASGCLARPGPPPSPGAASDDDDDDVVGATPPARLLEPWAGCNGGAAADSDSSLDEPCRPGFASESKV
Chain of 5-HT transporter (P31645 whole entry): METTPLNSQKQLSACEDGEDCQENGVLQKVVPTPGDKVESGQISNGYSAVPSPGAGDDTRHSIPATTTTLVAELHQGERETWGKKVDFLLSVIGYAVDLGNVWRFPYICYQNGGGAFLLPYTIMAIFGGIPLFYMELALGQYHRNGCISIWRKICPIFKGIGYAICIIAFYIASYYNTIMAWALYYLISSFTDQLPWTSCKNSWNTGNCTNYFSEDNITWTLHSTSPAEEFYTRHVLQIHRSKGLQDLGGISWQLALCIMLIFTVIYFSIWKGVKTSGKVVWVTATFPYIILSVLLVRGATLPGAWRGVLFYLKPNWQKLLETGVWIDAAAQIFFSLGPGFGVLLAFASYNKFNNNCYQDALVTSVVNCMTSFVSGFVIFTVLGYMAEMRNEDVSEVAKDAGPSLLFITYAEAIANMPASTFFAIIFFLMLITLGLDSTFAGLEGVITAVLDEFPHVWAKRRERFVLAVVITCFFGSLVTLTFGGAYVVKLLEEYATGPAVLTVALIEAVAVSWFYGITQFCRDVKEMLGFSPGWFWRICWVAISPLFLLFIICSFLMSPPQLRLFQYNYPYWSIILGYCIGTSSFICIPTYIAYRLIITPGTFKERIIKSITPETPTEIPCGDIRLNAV
Chain of V1a of vasopressin (P37288 whole entry): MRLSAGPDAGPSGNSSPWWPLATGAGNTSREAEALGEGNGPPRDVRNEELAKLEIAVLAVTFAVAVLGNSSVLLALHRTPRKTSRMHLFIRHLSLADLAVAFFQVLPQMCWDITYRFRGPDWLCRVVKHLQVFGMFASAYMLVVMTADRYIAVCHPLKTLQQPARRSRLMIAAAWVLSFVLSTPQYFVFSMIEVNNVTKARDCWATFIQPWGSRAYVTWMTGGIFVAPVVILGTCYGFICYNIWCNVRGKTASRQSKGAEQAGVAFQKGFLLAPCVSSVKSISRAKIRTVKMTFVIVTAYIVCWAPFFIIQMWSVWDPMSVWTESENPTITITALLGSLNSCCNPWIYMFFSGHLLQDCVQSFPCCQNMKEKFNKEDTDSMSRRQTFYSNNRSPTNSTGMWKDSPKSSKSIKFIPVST
Chain of D5 dopaminergic (P21918 whole entry): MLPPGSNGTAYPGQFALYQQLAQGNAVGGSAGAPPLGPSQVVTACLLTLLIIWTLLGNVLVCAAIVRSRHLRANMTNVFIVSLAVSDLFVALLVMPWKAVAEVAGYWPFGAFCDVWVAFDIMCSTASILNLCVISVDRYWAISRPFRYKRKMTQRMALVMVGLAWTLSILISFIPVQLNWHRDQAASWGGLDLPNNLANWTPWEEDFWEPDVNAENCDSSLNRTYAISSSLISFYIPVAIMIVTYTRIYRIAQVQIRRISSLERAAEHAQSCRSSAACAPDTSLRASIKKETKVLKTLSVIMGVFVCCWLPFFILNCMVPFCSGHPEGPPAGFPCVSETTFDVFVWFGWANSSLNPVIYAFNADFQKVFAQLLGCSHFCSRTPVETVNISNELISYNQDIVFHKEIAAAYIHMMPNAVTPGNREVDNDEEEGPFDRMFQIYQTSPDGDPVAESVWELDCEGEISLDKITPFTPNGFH

With `CCc1[nH]c2ccc(Cl)cc2c1CCN(C)C` [ST 2253, 5-Chloro-2-ethyl-N,N-dimethyltryptamine], the melting point is 188 °C (dec.). For the same molecule, the Ki in [1] was no less than 1000 nM. Further, the Ki in series [2] was greater than 1000 nM. In series [3], this molecule had a Ki greater than 1000 nM. In series [4], the Ki was found to be 69 nM and the “interaction capability for alpha1b receptors lower than for 5-HT6 receptor” value is recorded as roughly 3 fold. This molecule had a Ki in series [5] of no less than 1000 nM. In [6], the Ki is no less than 1000 nM. Besides, in [7], the Ki is no less than 1000 nM. The Ki in series [8] was no less than 1000 nM. In [9], this molecule registered a Ki of 84 nM. For the same molecule, the Ki in series [10] was no less than 1000 nM. The molecule also returned an inhibitory constant (Ki) in series [11] greater than 1000 nM. The molecule further displayed a Ki in series [12] greater than 1000 nM. Moreover, the Ki in [13] is no less than 1000 nM. The Ki in [14] was greater than 1000 nM. In addition, the Ki in series [15] is no less than 1000 nM. In series [16], this molecule gave a Ki greater than 1000 nM. Besides, the inhibitory constant (Ki) in series [17] was no less than 1000 nM. In series [18], the “5-HT6 binding affinity compared with Serotonin (in words)” value is “greater than that observed for Serotonin”, the IC50 amounted to 52 nM, the Ki stood at 26 nM and the “affinity for rat recombinant 5-HT6 receptor (in words)” value is listed as “high affinity”. Moreover, in series [18] (over other serotonin sites and other neurotransmitter receptors), the “selectivity of binding for 5-HT6 receptor (in words)” value is recorded as “selective affinity for 5-HT6 receptor”.
In turn, `Cc1[nH]c2ccc(Cl)cc2c1CCN(C)C` [ST 1936, 5-chloro-2-methyl-N,N-dimethyltryptamine] registered a melting point of 126 to 127 °C. For the same molecule, the Ki in [1] was no less than 1000 nM. In series [2], the Ki was greater than 1000 nM. The molecule further had a Ki in series [3] greater than 1000 nM. For the same molecule, in series [4], the affinity, expressed as Ki, was 53 nM and the “interaction capability for alpha1b receptors lower than for 5-HT6 receptor” value is recorded as “about 2 fold”. This molecule displayed a Ki in [5] of no less than 1000 nM. In [6], this molecule returned a Ki of no less than 1000 nM. The same molecule gave a Ki in series [7] of no less than 1000 nM. This molecule registered a Ki in series [8] of no less than 1000 nM. Also, in series [9], the Ki is greater than 1000 nM. Besides, in series [10], the Ki was greater than 1000 nM. The Ki in series [11] is greater than 1000 nM. The Ki in series [12] was greater than 1000 nM. The Ki in series [13] was no less than 1000 nM. Moreover, the Ki in [14] was greater than 1000 nM. The Ki in series [15] was no less than 1000 nM. In addition, in [16], the Ki is greater than 1000 nM. This molecule returned a Ki in series [17] of no less than 1000 nM. In addition, in [18], the “5-HT6 binding affinity compared with Serotonin (in words)” value is recorded as “greater than that observed for Serotonin”; the IC50 stood at 62 nM; the affinity, expressed as Ki, was 31 nM; the “affinity for rat recombinant 5-HT6 receptor (in words)” value was “high affinity”.
